Publication PMC4626104, “Inhibition on Proteasome β1 Subunit Might Contribute to the Anti-Cancer Effects of Fangchinoline in Human Prostate Cancer Cells” (PLoS ONE, 2015)
Where two headings read alike, the source gives them in different places.

How the values were obtained:
[1] = test system: T1, cellular proteasome of PC-3 cells; assay: Cellular proteasome activities of PC-3 cells; type: cell-based, human
T1 construct: endogenous in cells; host or cells: PC-3 cells, whole cell extract
Protocol: Cells were treated with either solvent control (0.1% DMSO), fangchinoline at different concentrations, or 1 μM carfilzomib (positive control) for 24 h at 37 °C. The enzymatic activities of cellular proteasome in cell lysate were measured as reported in our previous paper. Briefly, cells were harvested, washed with PBS and then lysed in proteasome activity assay buffer for 30 min at 4°C. The homogenate was then centrifuged at 12000 × g for 30 min at 4°C. The supernatant was collected as whole cell extract and the protein content in the supernatant was measured with the Bradford reagent. Catalytic activities of cellular proteasome were assayed by adding whole cell extract (containing 30 μg protein) to 100 μL of proteasome activity assay buffer containing 50 μM fluorogenic peptide substrates such as Z-LLE-AMC for detecting C-L activity, Z-ARR-AMC for detecting T-L activity or Suc-LLVY-AMC for detecting CT-L activity, respectively. The release of fluorogenic AMC from the peptide substrates was then measured as described above.

PC-3 cells [2] = assay: MTT assay of cell proliferation, PC-3 cells; type: cell-based; conditions: Homo sapiens, read-out: IC50 inhibiting cell proliferation
Protocol: The inhibitive effects of fangchinoline on proliferation of PC-3 cells or LnCap cells was observed by checking cell viability of cells using MTT assay as described before. Briefly, cells were seeded in 96-well plates at a density of 5×10^4 cells/mL for PC-3 cell and 4×10^4 cells/mL for LnCap cells. After overnight culture, the media were changed into fresh media containing various concentrations of fangchinoline or 0.1% DMSO (solvent control) for 24, 48 h or 72 h. Cell viability was evaluated by measuring the mitochondrial-dependent conversion of the yellow tetrazolium salt MTT to purple formazan crystals by metabolic active cells. The optical density (proportional to the number of live cells) was assessed with a Microplate Reader Bio-Rad 550 at 570 nm. IC50 value (half-maximal inhibitory concentration) was calculated by the Logit method.

PC-3 tumor xenografts = assay: PC-3 tumor xenograft experiments (tumor volume, TUNEL); type: in vivo, nude mice
Protocol: Male nude immunodeficient mice Balb/c-nu-nu, aged 4 weeks, were purchased from Shanghai Experimental Animal Center. All procedures involving animals were approved by the Institutional Animal Care and Use Committee of Shanghai Institute of Materia Medica, Chinese Academy of Sciences. On day 0, PC-3 cells (8×10^6 cells) suspended in 0.2 mL of serum-free RPMI 1640 were inoculated s.c. in the right flank of each mouse (six mice per group). 14 days after inoculation, mice were randomly divided into 3 groups and started injection with either vehicle control or fangchinoline at 25 mg/kg (ip., QD) or 50 mg/kg (ip., QD). Tumor sizes were measured every 4 days using calipers and their volumes were calculated using a standard formula: width^2×length/2. The relative tumor volume (RTV) was defined as the ratio of the tumor volume at a indicated time and the tumor volume at the start of drug treatment. Body weight was measured daily. On day 30 after inoculation, mice were sacrificed by CO2 inhalation and tumor xenografts were dissected. To visualize apoptosis in tumor xenografts, TUNEL labeling was conducted to detect apoptotic nuclei using In Situ Death Detection Kit (Roche Molecular Biochemicals). Briefly, tumor xenografts were fixed with 10% formalin solution at room temperature for 24 h and then embedded by paraffin. Specimens were heated for 1h by Water Bath-Slide Drier (LEICA H1 1220, German), incubated with dimethylbenzene for two times (8 min each) and then incubated with 100%, 95%, 90% and 85% ethanol for two times (3 min each). Specimens were then incubated with 0.1M Citrate buffer (pH 6.0) for microwave irradiation. After washing with PBS for two times (3 min each), slices were incubated with reaction buffer (from the In Situ Death Detection Kit) in a humid atmosphere at 37°C for 1 h. Slices were then washed with PBS three times (3 min each) to remove unincorporated fluorescein–deoxyuridine triphosphate. Nuclei were counterstained with 4,6-diamidino-2-phenylindole (DAPI) 1 μg/mL for 3 min and then washed with PBS for three times (3 min each). Images were captured using a 20X objective (Olympus BX51, Japan) on an epifluorescence microscope. Furthermore, the proteasome activities of tumor xenografts were assayed. Briefly, tumor xenografts were homogenerized in proteasome activity assay buffer using the FastPrep System (MP FastPrep-24, U.S.A), then centrifugation at 4°C for 30 min. The supernatants were then used for assay of proteasome activities using method as described above for analysis of cellular proteasome activities.

PC-3 cells [3] = assay: Flow cytometric analysis of cell cycle in PC-3 cells; type: cell-based, human; conditions: 24 h
Protocol: The induction of cell cycle arrest and apoptosis by fangchinoline in PC-3 cells was observed by using flow cytometric analysis as described in our previous reports. Briefly, for flow cytometry analysis of cell cycle, cells were collected after treatment, washed with PBS and then fixed with 70% ethanol at 4°C for overnight. After PBS washes, cells were re-suspended in staining buffer (10 mg/mL RNase A and […] propidium iodide in cold PBS) for 30 min in dark at room temperature and then analyzed using FACSCalibur Flow Cytometer. For flow cytometric analysis of apoptosis, Alexa Fluor 488 Annexin V & PI /Dead cell Apoptosis Kit (Invitrogen) was used. Cells were collected after treatment, washed with PBS and then resuspended in binding buffer and then incubated with Annexin V-FITC and propidium iodide for 15 min in dark at room temperature. Then, flow cytometric analysis was conducted and data analysis was performed with CellQuest software.

[4] = 25mg/kg ip. QD, day 14 after inoculation (start of treatment)
[5] = 25mg/kg ip. QD, day 17 after inoculation
[6] = 25mg/kg ip. QD, day 21 after inoculation
[7] = 25mg/kg ip. QD, day 24 after inoculation
[8] = 25mg/kg ip. QD, day 27 after inoculation
[9] = 25mg/kg ip. QD, day 30 after inoculation
[10] = 50mg/kg ip. QD, day 14 after inoculation (start of treatment)
[11] = 50mg/kg ip. QD, day 17 after inoculation
[12] = 50mg/kg ip. QD, day 21 after inoculation
[13] = 50mg/kg ip. QD, day 24 after inoculation
[14] = 50mg/kg ip. QD, day 27 after inoculation
[15] = 50mg/kg ip. QD, day 30 after inoculation

For `COc1ccc2cc1Oc1ccc(cc1)C[C@H]1c3cc(c(OC)cc3CCN1C)Oc1c(O)c(OC)cc3c1[C@H](C2)N(C)CC3` [fangchinoline], which “Inhibition of enzyme activity of cellular proteasome β1 subunit” value ([1]; 10 μM, 24 h treatment) is on record?
The value was “about 50%”.

What about the “Effect on chymotrypsin-like (CT-L) activity of cellular proteasome” value ([1]; PC-3 cells, 24 h) of the same compound?
Its value is “not significantly affected”.

What about the “Effect on trypsin-like (T-L) activity of cellular proteasome” value ([1]; PC-3 cells, 24 h) of the same compound?
The value was “not significantly affected”.

And the “Inhibition on C-L activity of cellular proteasome” value ([1]; PC-3 cells, 24 h, doses of 1 and 10 μM)?
Its value is “significant”.

What about the IC50 (PC-3 cells [2]; 24 h) of the same compound?
The IC50 was 27.5 ± 3.35 µM.

And the IC50 (PC-3 cells [2]; 48 h)?
Its IC50 is 13.1 ± 1.58 µM.

And the IC50 (PC-3 cells [2]; 72 h)?
The IC50 was 7.25 ± 0.312 µM.

And the “Tumor volume (Maximum)” value (PC-3 tumor xenografts; [4])?
Its value is 519.59 mm^3.

What about the “Tumor volume (Mean ± SEM)” value (PC-3 tumor xenografts; [4]) of the same compound?
Its value is 370.0±42.37 mm^3.

What about the “Tumor volume (Maximum)” value (PC-3 tumor xenografts; [5]) of the same compound?
Its value is 512.11 mm^3.

What about the “Tumor volume (Mean ± SEM)” value (PC-3 tumor xenografts; [5]) of the same compound?
Its value is 356.5±51.63 mm^3.

And the “Tumor volume (Maximum)” value (PC-3 tumor xenografts; [6])?
The value was 812.68 mm^3.

And the “Tumor volume (Mean ± SEM)” value (PC-3 tumor xenografts; [6])?
The value was 577.7±53.05 mm^3.

And the “Tumor volume (Maximum)” value (PC-3 tumor xenografts; [7])?
The value was 1147.52 mm^3.

What about the “Tumor volume (Mean ± SEM)” value (PC-3 tumor xenografts; [7]) of the same compound?
Its value is 955.0±78.87 mm^3.

And the “Tumor volume (Maximum)” value (PC-3 tumor xenografts; [8])?
Its value is 1439.56 mm^3.

What about the “Tumor volume (Mean ± SEM)” value (PC-3 tumor xenografts; [8]) of the same compound?
The value was 1248±50.73 mm^3.

And the “Tumor volume (Maximum)” value (PC-3 tumor xenografts; [9])?
The value was 1655.05 mm^3.

What about the “Tumor volume (Mean ± SEM)” value (PC-3 tumor xenografts; [9]) of the same compound?
Its value is 1413±61.89 mm^3.

And the “Tumor volume (Maximum)” value (PC-3 tumor xenografts; [10])?
Its value is 356.43 mm^3.

What about the “Tumor volume (Mean ± SEM)” value (PC-3 tumor xenografts; [10]) of the same compound?
The value was 348.4±3.470 mm^3.

And the “Tumor volume (Maximum)” value (PC-3 tumor xenografts; [11])?
The value was 402.14 mm^3.

What about the “Tumor volume (Mean ± SEM)” value (PC-3 tumor xenografts; [11]) of the same compound?
The value was 321.3±21.46 mm^3.

What about the “Tumor volume (Maximum)” value (PC-3 tumor xenografts; [12]) of the same compound?
The value was 462.36 mm^3.

What about the “Tumor volume (Mean ± SEM)” value (PC-3 tumor xenografts; [12]) of the same compound?
The value was 374.8±37.58 mm^3.

What about the “Tumor volume (Maximum)” value (PC-3 tumor xenografts; [13]) of the same compound?
The value was 812.28 mm^3.

What about the “Tumor volume (Mean ± SEM)” value (PC-3 tumor xenografts; [13]) of the same compound?
Its value is 593.8±593.8 mm^3.

What about the “Tumor volume (Maximum)” value (PC-3 tumor xenografts; [14]) of the same compound?
Its value is 1008.40 mm^3.

What about the “Tumor volume (Mean ± SEM)” value (PC-3 tumor xenografts; [14]) of the same compound?
The value was 857.0±41.00 mm^3.

What about the “Tumor volume (Maximum)” value (PC-3 tumor xenografts; [15]) of the same compound?
Its value is 1263.09 mm^3.

And the “Tumor volume (Mean ± SEM)” value (PC-3 tumor xenografts; [15])?
The value was 1120±66.28 mm^3.

What about the “Growth of PC-3 xenografts (relative tumor volume)” value (PC-3 tumor xenografts; 25 and 50 mg/kg ip. QD) of the same compound?
The value was “dose-dependently inhibit”.

And the “Apoptosis in PC-3 xenografts (TUNEL labeling)” value (PC-3 tumor xenografts; animals treated with fangchinoline)?
Its value is “apoptosis was induced”.

What about the “Percentage (%) of cells in G0/G1 phase” value (PC-3 cells [3]; 5 μM) of the same compound?
The value was 60.17±1.49%.

What about the “Percentage (%) of cells in G2/M phase” value (PC-3 cells [3]; 5 μM) of the same compound?
Its value is 11.21±2.45 %.

What about the “Percentage (%) of cells in S phase” value (PC-3 cells [3]; 5 μM) of the same compound?
Its value is 28.62±2.31%.

And the “Percentage (%) of cells in G0/G1 phase” value (PC-3 cells [3]; 8 μM)?
Its value is 64.25±1.57 %.

What about the “Percentage (%) of cells in G2/M phase” value (PC-3 cells [3]; 8 μM) of the same compound?
The value was 11.99±2.23 %.

And the “Percentage (%) of cells in S phase” value (PC-3 cells [3]; 8 μM)?
Its value is 23.76±2.77%.

And the “Percentage (%) of cells in G0/G1 phase” value (PC-3 cells [3]; 12 μM)?
Its value is 63.03±0.73 %.

And the “Percentage (%) of cells in G2/M phase” value (PC-3 cells [3]; 12 μM)?
Its value is 11.59±1.99 %.

And the “Percentage (%) of cells in S phase” value (PC-3 cells [3]; 12 μM)?
The value was 25.37±1.75 %.

And the “Percentage (%) of cells in G0/G1 phase” value (PC-3 cells [3]; 18 μM)?
Its value is 67.63±3.34 %.

What about the “Percentage (%) of cells in G2/M phase” value (PC-3 cells [3]; 18 μM) of the same compound?
The value was 8.88±2.91%.

And the “Percentage (%) of cells in S phase” value (PC-3 cells [3]; 18 μM)?
The value was 23.48±2.14 %.

What about the “Percentage (%) of cells in G0/G1 phase” value (PC-3 cells [3]; 27 μM) of the same compound?
The value was 75.16±1.95 %.

What about the “Percentage (%) of cells in G2/M phase” value (PC-3 cells [3]; 27 μM) of the same compound?
The value was 8.65±1.81%.

What about the “Percentage (%) of cells in S phase” value (PC-3 cells [3]; 27 μM) of the same compound?
The value was 16.19±0.63 %.

And the “Percentage (%) of cells in G0/G1 phase” value (PC-3 cells [3]; 40 μM)?
The value was 80.14±1.55 %.

And the “Percentage (%) of cells in G2/M phase” value (PC-3 cells [3]; 40 μM)?
The value was 7.99±1.43%.

What about the “Percentage (%) of cells in S phase” value (PC-3 cells [3]; 40 μM) of the same compound?
The value was 11.88±0.56 %.
